Measured values: patent US8203033B2, “Methods and compositions for providing tolerance to multiple herbicides” (Pioneer Hi-Bred International, Inc., priority 2005, dated 2012)

How the values were obtained:
Format in all cases: in vivo
[1] = test system: Heterozygous GAT-HRA corn; test: Postemergence test of herbicides on corn (fresh weight, visual injury); conditions: for Fresh Weight: fresh shoots weighed 2 weeks after treatment
[2] = test system: Heterozygous GAT-HRA corn; test: Preemergence test of ALS herbicides on corn (fresh weight, visual injury); conditions: 200 g/ha, mean of four replications; for Fresh Weight: fresh shoots weighed 4 weeks after treatment; for % Visual Injury: 0% no injury, 100% plant death
[3] = test system: parent elite stiff stalk inbred corn; test: as above; conditions: 200 g/ha, mean of four replications; for Fresh Weight: fresh shoots weighed 4 weeks after treatment; for % Visual Injury: 0% no injury, 100% plant death
[4] = test system: parent elite stiff stalk inbred corn; test: Postemergence test of herbicides on corn (fresh weight, visual injury)
control maize = test: Evaluation of herbicide tolerance, spray at V2 stage; conditions: postemergence; tribenuron, chlorimuron, imazapyr 200 g ai/ha; metsulfuron-methyl 35 g ai/ha
GAT-HRA maize = test: as above; conditions: postemergence; tribenuron, chlorimuron, imazapyr 200 g ai/ha; metsulfuron-methyl 35 g ai/ha
Method: GAT-HRA maize plants were evaluated for tolerance to glyphosate and other herbicides. One protocol used in this evaluation was as follows. At the V2 stage (Ritchie and Hanway (1982), “How a corn plant develops” Spec. Rep. 48. (Coop. Ext. Ser., Iowa State Univ., Ames, Iowa)), plant heights were measured and herbicides were applied by spray application. Ten to fourteen days after the spray application, the transgenic plants were evaluated for injury symptoms and measured for plant height again in order to determine plant growth rates.
Plants were then evaluated at various times after treatment, such as 10 or 14 days after treatment. […] Leaf samples were taken from GAT-HRA plants and used in quantitative PCR analysis and other analyses to determine the number and arrangement of copies of the GAT and HRA polynucleotides that had been integrated into the plant genome.
Other protocols for evaluation included treatment with imidazolinone herbicides, such as the commercial herbicide Lightning® (a combination of imazapyr and imazethapyr), which was applied to GAT-HRA maize at the V2 leaf stage at four times the field label rate (250 g ai/ha). […] Another protocol for evaluation included treatment with imidazolinone herbicides as well as sulfonylurea and glyphosate herbicides. In these tests, GAT-HRA maize was treated with various combinations of Lightning® (imazapyr and imazethapyr), Basis® (rimsulfuron and thifensulfuron-methyl) and WeatherMAX® (glyphosate potassium salt). These herbicides were applied at the V2 stage as follows: Lightning® at twice the field label rate (1.8 oz ai/ac (133 ml ai/ha)), Basis® at twice the field label rate (0.5 oz ai/ac (36.9 ml ai/ha)) and WeatherMax® at four times the field label rate (43 oz ai/ac). Fourteen days after the treatment application, the plants were evaluated. […] “Field label rate” refers to the application rate specified on the product label. Where the application rate for a particular situation is a range of rates, as used herein, the term “field label rate” indicates the upper end of that range. […]

[5] = test system: Hairy Fleabane (Conyza bonariensis); test: Glyphosate, metsulfuron-methyl and two additives on the control of hairy fleabane
Method: This example included the same treatments as used in Example 11, except the treatments were carried out on a glyphosate sensitive biotype of Kleinskraalhans (Conyza bonariensis).

[6] = test system: non-glyphosate resistant ryegrass (70-04); test: Glyphosate, metsulfuron-methyl and two additives on the control of ryegrass; conditions: 5-6 leaf stage
Method: The example was conducted on non-glyphosate resistant ryegrass. As provided in Table 23, all treatments that included glyphosate [180 g a.i. L ha^−1 (0.5 L glyphosate (SCAT®))] plus metsulfuron-methyl (BRUSH-OFF®) (5 and 10 g ha^−1) gave 100% control of the ryegrass.

[7] = 200 g/ha, 0% no injury, 100% plant death, mean of four replications
[8] = 200 g/ha, mean of four replications
[9] = 200 g/ha, fresh shoots weighed 2 weeks after treatment, mean of four replications

| Compound | % Visual Injury [1, 7] [%] | Fresh Weight [1, 8] [g] | Fresh Weight [2] [g] | Fresh Weight [3] [g] | % Visual Injury [4, 7] [%] | Fresh Weight [4, 9] [g] | % Visual Injury [2] [%] | % Visual Injury [3] [%] | other results |
| --- | --- | --- | --- | --- | --- | --- | --- | --- | --- |
| CCOc1nc(F)cc2nc(S(=O)(=O)Nc3c(Cl)cccc3C(=O)OC)nn12 [Chloransulam-methyl, methyl 3-chloro-2-[[(5-ethoxy-7-fluoro-[1,2,4]triazolo[1,5-c]pyrimidin-2-yl)sulfonyl]amino]benzoate] | 3 | 104.4 | 44.9 | 5.5 | 96 | 6.8 | – | – | – |
| CCOC(=O)c1ccccc1S(=O)(=O)NC(=O)Nc1nc(Cl)cc(OC)n1 [Chlorimuron-ethyl, ethyl 2-[[[[(4-chloro-6-methoxy-2-pyrimidinyl)amino]carbonyl]amino]sulfonyl]-benzoate] | 15 | – | – | 9.3 | 93 | – | 10 | 100 | damage from the treatment (control maize): severely damaged or killed; damage from the treatment (GAT-HRA maize): no significant damage |
| CCOc1nc(NC)nc(NC(=O)NS(=O)(=O)c2ccccc2C(=O)OC)n1 [Ethametsulfuron-methyl, methyl 2-[[[[[4-ethoxy-6-(methylamino)-1,3,5-triazin-2-yl]amino]carbonyl]amino]sulfonyl]benzoate] | 6 | 98.0 | – | 1.6 | 96 | 5.6 | 88 | 100 | – |
| COc1nn(C(=O)NS(=O)(=O)c2ccccc2OC(F)(F)F)c(=O)n1C [Flucarbazone Na^+, 4,5-dihydro-3-methoxy-4-methyl-5-oxo-N-[[2-(trifluoromethoxy)phenyl]sulfonyl]-1H-1,2,4-triazole-1-carboxamide] | 14 | 86.0 | 48.8 | 0.0 | 100 | 3.1 | 40 | 100 | – |
| COC(=O)c1ccc(C(F)(F)F)nc1S(=O)(=O)NC(=O)Nc1nc(OC)cc(OC)n1 [Flupyrsulfuron-methyl Na^+, methyl 2-[[[[(4,6-dimethoxy-2-pyrimidinyl)amino]carbonyl]amino]sulfonyl]-6-(trifluoromethyl)-3-pyridinecarboxylate] | 4 | 95.5 | 45.8 | 23.6 | 95 | 5.2 | 90 | 87 | – |
| CP(=O)(O)CCC(N)C(=O)O (stereo not shown) [Glufosinate ammonium] | – | – | – | – | – | – | – | – | % Visual Injury ([1]; 1870 g/ha): 1%; % Visual Injury ([4]; 1870 g/ha): 99%; Fresh Weight ([4]; 1870 g/ha, 2 weeks after treatment): 2.4 g |
| COC(=O)c1c(Cl)nn(C)c1S(=O)(=O)NC(=O)Nc1nc(OC)cc(OC)n1 [Halosulfuron-methyl, methyl 3-chloro-5-[[[[(4,6-dimethoxy-2-pyrimidinyl)amino]-carbonyl]amino]sulfonyl]-1-methyl-1H-pyrazole-4-carboxylate] | 8 | – | – | – | 14 | – | 15 | 30 | – |
| CC(C)C1(C)N=C(c2ncccc2C(=O)O)NC1=O (stereo not shown) [Imazapyr] | – | – | – | – | – | – | – | – | damage from the treatment (control maize): severely damaged or killed; damage from the treatment (GAT-HRA maize): no significant damage |
| COC(=O)c1ccc(I)cc1S(=O)(=O)NC(=O)Nc1nc(C)nc(OC)n1 [Iodosulfuron-methyl Na^+, methyl 4-iodo-2-[[[[(4-methoxy-6-methyl-1,3,5-triazin-2-yl)amino]carbonyl]amino]sulfonyl]benzoate] | 1 | 95.0 | 52.5 | 24.4 | 100 | 3.5 | 5 | 92 | – |
| COC(=O)c1ccccc1S(=O)(=O)NC(=O)Nc1nc(C)nc(OC)n1 [Metsulfuron-methyl (BRUSH-OFF ®)] | – | – | – | – | – | – | – | – | Control (%) ([5]; Trial 2: metsulfuron-methyl (BRUSH-OFF) 5 g/ha): 100%; Control (%) ([5]; Trial 3: metsulfuron-methyl (BRUSH-OFF) 10 g/ha): 100% |
| COC(=O)c1ccccc1S(=O)(=O)NC(=O)Nc1nc(C)nc(OC)n1 [Metsulfuron-methyl, methyl 2-[[[[(4-methoxy-6-methyl-1,3,5-triazin-2-yl)amino]carbonyl]amino]sulfonyl]benzoate] | – | – | – | 0.0 | – | – | – | – | effect on the ryegrass, on its own [6]: did nothing accept stunt the ryegrass plants slightly; damage from the treatment (control maize): severely damaged or killed; damage from the treatment (GAT-HRA maize): no significant damage |
| CCCOc1nn(C(=O)NS(=O)(=O)c2ccccc2C(=O)OC)c(=O)n1C [Propoxycarbazone Na^+, methyl 2-[[[(4,5-dihydro-4-methyl-5-oxo-3-propoxy-1H-1,2,4-triazol-1-yl)carbonyl]amino]sulfonyl]benzoate] | 9 | 101.2 | 46.7 | 0.6 | 100 | 1.9 | 100 | 100 | – |
| CO/N=C(/C)c1cccc(Oc2nc(OC)cc(OC)n2)c1C(=O)OC [Pyriminobac-methyl] | 4 | – | – | – | 93 | 7.6 | 20 | 83 | – |
| COc1cc(OC)nc(Sc2cccc(Cl)c2C(=O)[O-])n1.[Na+] [Pyrithiobac Na^+, Pyrithiobac] | – | 87.9 | 48.6 | 0.0 | – | 2.8 | – | – | – |
| COC(=O)c1ccccc1S(=O)(=O)NC(=O)Nc1nc(C)cc(C)n1 [Sulfometuron-methyl, methyl 2-[[[[(4,6-dimethyl-2-pyrimidinyl)amino]carbonyl]amino]sulfonyl]-benzoate] | 2 | – | – | 0.0 | 100 | 2.0 | 6 | 100 | – |
| COc1cc(OC)nc(NC(=O)NS(=O)(=O)c2ncccc2OCC(F)(F)F)n1 [Trifloxysulfuron Na^+, N-[[(4,6-dimethoxy-2-pyrimidinyl)amino]-carbonyl]-3-(2,2,2-trifluoroethoxy)-2-pyridinesulfonamide] | 29 | – | – | 0.0 | 100 | 1.0 | 0 | 100 | – |
| COC(=O)c1cccc(C)c1S(=O)(=O)NC(=O)Nc1nc(OCC(F)(F)F)nc(N(C)C)n1 [Triflusulfuron-methyl] | – | – | – | – | – | 2.1 | – | – | – |
| O=C(O)CNCP(=O)(O)O [glyphosate (ROUNDUP ®)] | – | – | – | – | – | – | – | – | Control (%) ([5]; Trial 1: glyphosate (ROUNDUP) 0.5 L/ha): 12% |
| Imazamethabenz-methyl | – | 95.0 | – | – | – | – | – | – | – |
